Assay results published in patent US10591461B2, “Method of drug design and optimisation utilizing stereochemical mimicry” (The Trustees of the University of Pennsylvania, priority 2016, dated 2020).
Ends that are not written are not given here.

Legend:
neuro-2a cells = experiment: Confocal microscopy imaging of neuronal cells (neurite outgrowth, qualitative); format: cell-based, Mouse; settings: for number of projections (increase from no treatment): confocal images, FIG. 7
Method: (§1) Once the three compounds were synthesized the neurite outgrowth assay was used in order to determine the effectiveness of the aza-proline derivatives in comparison with the Glyx-13. Mouse neuroblastoma cells (Neuro-2a cells) were used in order to measure the increase in neurite growth between untreated cells and those treated with the test compounds. A plate reader assay was used where 9,000 cells/cm^2 were treated with the compounds at 0.01, 0.10, and 1.00 μM concentrations for 48 hours. Several controls were used as well, including wells with no cell and compound, cells with no compound (just water), and wells with no cells and water. After treatment with the compounds, the cells were washed in DPBS buffer and treated with cell viability indicator and a membrane stain for 20 minutes before being washed again and treated with a background suppression dye. The plate reader assay was inconclusive for some of the concentrations of the compounds, but the 0.10 μM data is promising. (FIG. 6)

[1] = test system: Mouse neuroblastoma cells (Neuro-2a cells); format: cell-based; settings: 0.10 μM, 48 hours, vs untreated cells; FIG. 6; preliminary data
Method: as §1

Row | Molecule | number of projections (increase from no treatment) (neuro-2a cells) | size of the neurites (membrane stain) [1] | effectiveness compared with control compound Glyx-13 (neuronal projections and dendrite length) (neuro-2a cells; confocal microscope data)
1 | C[C@@H](O)[C@H](N)C(=O)N1CCCN1C(=O)N1CCC[C@H]1C(=O)N[C@H](C(N)=O)[C@@H](C)O [Glyx-1] | even more noticeable | – | –
2 | C[C@@H](O)[C@H](N)C(=O)N1CCC[C@H]1C(=O)N1CCCN1C(=O)N[C@H](C(N)=O)[C@@H](C)O [Glyx-2] | even more noticeable | significant increase | significantly more effective
3 | Thr-Pro-Pro-Thr-NH2 (TPPT-NH2) [Glyx-13, tetrapeptide, parent and control compound, NMDA receptor glycine-site partial agonist, reference compound] | significant increase | – | –
